Assay [1] deals with T1, Chitinase B (Serratia marcescens) (UniProt P11797).
T1 sequence (whole entry): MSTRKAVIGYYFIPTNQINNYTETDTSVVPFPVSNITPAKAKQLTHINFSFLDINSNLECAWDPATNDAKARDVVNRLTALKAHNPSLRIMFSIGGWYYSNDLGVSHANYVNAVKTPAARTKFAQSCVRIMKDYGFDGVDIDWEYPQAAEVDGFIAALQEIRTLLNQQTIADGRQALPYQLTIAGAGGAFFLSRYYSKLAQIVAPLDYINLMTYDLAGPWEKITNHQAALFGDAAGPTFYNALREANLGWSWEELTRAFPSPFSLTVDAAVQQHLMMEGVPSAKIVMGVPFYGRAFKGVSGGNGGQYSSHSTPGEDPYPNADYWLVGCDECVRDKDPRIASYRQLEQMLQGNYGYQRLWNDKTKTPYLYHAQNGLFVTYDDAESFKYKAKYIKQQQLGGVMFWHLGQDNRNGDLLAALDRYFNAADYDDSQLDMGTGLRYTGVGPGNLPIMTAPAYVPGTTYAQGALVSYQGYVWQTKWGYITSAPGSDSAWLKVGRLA
The assay is described as follows: Inhibition of Serratia marcescens chitinase b catalytic domain overexpressed in Escherichia coli BL21(DE3) cells at 1 uM using 4MU-(GlcNAc)2 as substrate after 30 mins by fluorescence based microplate reader analysis.

Assay [2] deals with Chitinase (Ostrinia furnacalis) (UniProt Q4AE59). Kind of assay: Inhibition of Ostrinia furnacalis chitinase h catalytic domain overexpressed in Pichia pastoris at 1 uM using 4MU-(GlcNAc)2 as substrate after 30 mins by fluorescence based microplate reader analysis.
Sequence of Chitinase (Ostrinia furnacalis) (Q4AE59 as listed by the source): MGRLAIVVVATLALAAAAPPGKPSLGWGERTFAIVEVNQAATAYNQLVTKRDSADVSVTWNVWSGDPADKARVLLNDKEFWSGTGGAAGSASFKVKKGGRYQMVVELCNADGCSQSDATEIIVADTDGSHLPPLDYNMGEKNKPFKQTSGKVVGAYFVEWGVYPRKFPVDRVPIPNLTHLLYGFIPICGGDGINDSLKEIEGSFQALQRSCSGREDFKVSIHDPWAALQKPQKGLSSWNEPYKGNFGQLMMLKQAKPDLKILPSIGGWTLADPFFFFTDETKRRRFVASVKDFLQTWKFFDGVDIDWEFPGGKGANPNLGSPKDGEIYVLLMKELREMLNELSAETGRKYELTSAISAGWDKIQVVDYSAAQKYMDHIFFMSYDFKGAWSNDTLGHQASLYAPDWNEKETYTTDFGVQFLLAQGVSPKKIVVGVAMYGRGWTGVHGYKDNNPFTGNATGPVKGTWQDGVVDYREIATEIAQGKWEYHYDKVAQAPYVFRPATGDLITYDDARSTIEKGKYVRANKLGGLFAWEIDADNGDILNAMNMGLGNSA
The target in assay [3] is Acidic mammalian chitinase (Homo sapiens, UniProt Q9BZP6). The assay is described as follows: Inhibition of human acidic mammalian chitinase catalytic domain overexpressed in Pichia pastoris at 10 uM using 4MU-(GlcNAc)2 as substrate after 30 mins by fluorescence based microplate reader analysis.
Sequence of Acidic mammalian chitinase (Q9BZP6 22-476 limits assumed): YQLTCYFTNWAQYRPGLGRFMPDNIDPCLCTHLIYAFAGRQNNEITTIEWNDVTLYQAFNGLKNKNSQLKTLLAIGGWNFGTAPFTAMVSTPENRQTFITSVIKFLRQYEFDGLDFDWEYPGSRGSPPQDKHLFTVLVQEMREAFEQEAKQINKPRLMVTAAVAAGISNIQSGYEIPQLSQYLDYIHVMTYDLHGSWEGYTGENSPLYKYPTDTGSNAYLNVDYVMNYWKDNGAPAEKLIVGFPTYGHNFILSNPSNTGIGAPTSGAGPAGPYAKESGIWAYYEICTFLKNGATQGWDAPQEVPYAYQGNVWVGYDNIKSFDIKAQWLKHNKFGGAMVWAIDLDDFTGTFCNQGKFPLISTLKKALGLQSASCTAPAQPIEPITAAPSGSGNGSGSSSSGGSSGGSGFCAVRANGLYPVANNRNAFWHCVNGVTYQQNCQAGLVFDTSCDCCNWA
For assay [4], the target named is Chitotriosidase-1 (Homo sapiens, UniProt Q13231). The assay is described as follows: Inhibition of human CHIT1 catalytic domain overexpressed in Pichia pastoris at 10 uM using 4MU-(GlcNAc)2 as substrate after 30 mins by fluorescence based microplate reader analysis.
Sequence of Chitotriosidase-1 (Q13231 22-466 limits assumed): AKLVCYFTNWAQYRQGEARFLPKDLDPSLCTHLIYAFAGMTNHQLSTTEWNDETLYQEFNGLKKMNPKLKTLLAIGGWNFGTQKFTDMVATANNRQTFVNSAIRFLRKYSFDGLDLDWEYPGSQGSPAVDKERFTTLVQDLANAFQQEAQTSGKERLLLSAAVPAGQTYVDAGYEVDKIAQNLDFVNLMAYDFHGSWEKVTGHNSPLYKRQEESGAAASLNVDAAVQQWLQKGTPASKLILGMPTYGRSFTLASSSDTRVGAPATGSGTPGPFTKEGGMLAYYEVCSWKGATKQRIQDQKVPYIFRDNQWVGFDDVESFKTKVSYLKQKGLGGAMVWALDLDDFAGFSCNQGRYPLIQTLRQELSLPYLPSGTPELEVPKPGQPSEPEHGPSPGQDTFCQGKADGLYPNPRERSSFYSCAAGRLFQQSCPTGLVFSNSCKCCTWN

SMILES strings stand for the structures. Activity calls are given as the source filed them. No cut-off for these calls is given here.

Data on 15 compounds can be found in ChEMBL document CHEMBL4354842, “A Series of Compounds Bearing a Dipyrido-Pyrimidine Scaffold Acting as Novel Human and Insect Pest Chitinase Inhibitors” (J Med Chem, 2020).

Turning to `C=CCn1c(=N)c(C(=O)N2CCN(C)CC2)cc2c(=O)n3cccc(C)c3nc21`, the inhibition entry in assay [1], in assay [2], in assay [3] and in assay [4] was “inactive” in each case.
As to `Cc1cccn2c(=O)c3cc(C(=O)N[C@H](C)c4ccccc4)c(=N)n(C[C@H]4CCCO4)c3nc12`, the inhibition result in assay [1], in assay [2], in assay [3] and in assay [4] was “Active” each time.
Consider `C[C@@H](NC(=O)c1cc2c(=O)n3ccccc3nc2n(C[C@H]2CCCO2)c1=N)c1ccccc1`, for which the inhibition result in assay [1], in assay [2], in assay [3] and in assay [4] was “Active” throughout.
With `COCCCn1c(=N)c(-c2nc3ccccc3s2)cc2c(=O)n3ccccc3nc21`, the inhibition result in assay [1], in assay [2], in assay [3] and in assay [4] was “inactive” throughout.
For the compound `Cc1cccn2c(=O)c3cc(C(=O)NCc4cccnc4)c(=N)n(Cc4ccc(F)cc4)c3nc12`, the inhibition result in assay [1], in assay [2], in assay [3] and in assay [4] was “Active” each time.
As for `CNC(=O)c1cc2c(=O)n3cc(C)ccc3nc2n(Cc2cccnc2)c1=N`, the inhibition entry in assay [1], in assay [2], in assay [3] and in assay [4] was “inactive” in each case.
For the compound `Cc1cccn2c(=O)c3cc(C#N)c(=N)n(Cc4cccnc4)c3nc12`, the inhibition entry in assay [1], in assay [2], in assay [3] and in assay [4] was “inactive” each time.
As to `COCCCn1c(=N)c(C(=O)NCc2ccc(C)cc2)cc2c(=O)n3ccccc3nc21`, the inhibition result in assay [1], in assay [2], in assay [3] and in assay [4] was “inactive” throughout.
`N=c1c(C(=O)NCc2cccnc2)cc2c(=O)n3ccccc3nc2n1Cc1ccccc1`: the inhibition entry in assay [1], in assay [2], in assay [3] and in assay [4] was “Active” each time.
Consider `Cc1ccc2nc3c(cc(C(=O)N[C@H](C)c4ccccc4)c(=N)n3C[C@H]3CCCO3)c(=O)n2c1`, for which the inhibition entry in assay [1], in assay [2], in assay [3] and in assay [4] was “Active” in each case.
With `Cc1ccc2nc3c(cc(C(=O)NCc4cccnc4)c(=N)n3C[C@H]3CCCO3)c(=O)n2c1`, the inhibition entry in assay [1], in assay [2], in assay [3] and in assay [4] was “Active” in each case.
For `Cc1cccn2c(=O)c3cc(C(=O)NCc4cccnc4)c(=N)n(Cc4ccco4)c3nc12`, the inhibition result in assay [1], in assay [2], in assay [3] and in assay [4] was “Active” in each case.
As for `Cc1cccn2c(=O)c3cc(C#N)c(=N)n(Cc4ccccc4)c3nc12`, the inhibition entry in assay [1], in assay [2], in assay [3] and in assay [4] was “inactive” each time.
As for `CCOC(=O)c1cc2c(=O)n3ccccc3nc2n(Cc2ccco2)c1=N`, the inhibition entry in assay [1], in assay [2], in assay [3] and in assay [4] was “inactive” throughout.
For `COCCCn1c(=N)c(C(=O)NCc2cccnc2)cc2c(=O)n3ccccc3nc21`, the inhibition result in assay [1], in assay [2], in assay [3] and in assay [4] was “inactive” in each case.
